Patent publication US6593480B2 (Abbott Laboratories, priority 1999, dated 2003)

Molecular target: T1, progesterone receptor (PR) (Homo sapiens, UniProt P06401)
T1 sequence (P06401 1-933): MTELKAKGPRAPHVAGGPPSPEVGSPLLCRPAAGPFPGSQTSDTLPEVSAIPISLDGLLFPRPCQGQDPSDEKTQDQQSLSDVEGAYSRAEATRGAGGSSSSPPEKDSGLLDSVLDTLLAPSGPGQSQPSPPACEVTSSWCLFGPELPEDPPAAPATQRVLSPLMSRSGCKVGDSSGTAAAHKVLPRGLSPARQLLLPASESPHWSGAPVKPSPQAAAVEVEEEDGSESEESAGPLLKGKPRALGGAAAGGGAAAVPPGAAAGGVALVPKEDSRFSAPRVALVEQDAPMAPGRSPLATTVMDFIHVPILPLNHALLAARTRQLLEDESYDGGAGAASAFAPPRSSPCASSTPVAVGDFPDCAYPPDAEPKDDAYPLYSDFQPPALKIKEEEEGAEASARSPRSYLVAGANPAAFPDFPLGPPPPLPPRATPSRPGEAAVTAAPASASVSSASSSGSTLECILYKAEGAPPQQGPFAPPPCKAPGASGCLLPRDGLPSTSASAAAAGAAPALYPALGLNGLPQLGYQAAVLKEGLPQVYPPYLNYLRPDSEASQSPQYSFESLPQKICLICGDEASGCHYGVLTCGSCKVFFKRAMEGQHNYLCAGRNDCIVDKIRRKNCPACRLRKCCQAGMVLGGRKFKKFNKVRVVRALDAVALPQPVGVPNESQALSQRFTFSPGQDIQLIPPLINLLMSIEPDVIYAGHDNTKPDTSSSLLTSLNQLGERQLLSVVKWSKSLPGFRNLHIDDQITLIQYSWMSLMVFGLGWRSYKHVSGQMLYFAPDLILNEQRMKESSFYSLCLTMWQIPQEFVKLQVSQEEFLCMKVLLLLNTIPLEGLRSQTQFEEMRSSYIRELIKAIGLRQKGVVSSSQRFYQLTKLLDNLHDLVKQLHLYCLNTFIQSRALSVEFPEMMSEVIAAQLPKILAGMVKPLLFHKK
Assay: Radioligand binding assay with progesterone receptor cytosol (similar protocol)
From the text: Methods for Radioligand Binding Studies with Human Glucocorticoid and Progesterone Receptor Cytosol
A similar protocol was employed to measure affinity of the compounds of the present invention for progesterone receptor (PR).

Compound	IC50
COc1cccc2c1-c1ccc(NS(C)(=O)=O)cc1C(c1cc(C)cc(C)c1)O2 (stereo not drawn) [Example 87, N-[6-(3,5-dimethylphenyl)-1-methoxy-6H-benzo[c]chromen-8-yl]methanesulfonamide]	210 nM
CS(=O)(=O)Nc1ccc2c(c1)C(c1cccc(-c3ccccc3Cl)c1)Oc1cccc(OC(F)F)c1-2 (stereo not drawn) [Example 146, N-[6-(2′-chloro[1,1′-biphenyl]-3-yl)-1-(difluoromethoxy)-6H-benzo[c]chromen-8-yl]methanesulfonamide]	260 nM
COc1cccc2c1-c1ccc(NS(C)(=O)=O)cc1C(c1cccc(N(C)S(C)(=O)=O)c1)O2 (stereo not drawn) [Example 83, N-(1-methoxy-6-{3-[methyl(methylsulfonyl)amino]phenyl}-6H-benzo[c]chromen-8-yl)methanesulfonamide]	3630 nM
CS(=O)(=O)Nc1ccc2c(c1)C(c1cccc(Br)c1)Oc1cccc(OC(F)F)c1-2 (stereo not drawn) [Example 103, N-[6-(3-bromophenyl)-1-(difluoromethoxy)-6H-benzo[c]chromen-8-yl]methanesulfonamide]	180 nM
CCOCCCc1cccc(C2Oc3cccc(OC(F)F)c3-c3ccc(NS(C)(=O)=O)cc32)c1 (stereo not drawn) [Example 120, N-{1-(difluoromethoxy)-6-[3-(3-ethoxypropyl)phenyl]-6H-benzo[c]chromen-8-yl}methanesulfonamide]	500 nM
CNc1cccc(C2Oc3cccc(OC)c3-c3ccc(NS(C)(=O)=O)cc32)c1 (stereo not drawn) [Example 81, N-{1-methoxy-6-[3-(methylamino)phenyl]-6H-benzo[c]chromen-8-yl}methanesulfonamide]	9360 nM
(1-ethoxy-6-phenyl-6H-dibenzo(b,d)pyran-8-yl)methanesulfonamide [Example 44]	6900 nM
COc1cccc2c1-c1ccc(NS(C)(=O)=O)cc1C(c1ccsc1)O2 (stereo not drawn) [Example 97, N-[1-methoxy-6-(3-thienyl)-6H-benzo[c]chromen-8-yl]methanesulfonamide]	180 nM
COc1cccc2c1-c1ccc(NS(C)(=O)=O)cc1C(c1cccc(N(C)S(=O)(=O)c3ccccc3)c1)O2 (stereo not drawn) [Example 129, N(3-{1-methoxy-8-[(methylsulfonyl)amino]-6H-benzo[c]chromen-6-yl}phenyl)-N-methylbenzenesulfonamide]	> 10000 nM
COc1cccc2c1-c1ccc(NS(C)(=O)=O)cc1C(c1ccc(-c3ccccc3)s1)O2 (stereo not drawn) [Example 100, N-[1-methoxy-6-(5-phenyl-2-thienyl)-6H-benzo[c]chromen-8-yl]methanesulfonamide]	250 nM
Nc1ccc2c(c1Br)C(c1ccccc1)Oc1cccc(OC(F)F)c1-2 (stereo not drawn) [Example 4, 8-Amino-7-bromo-1-difluoromethoxy-6-phenyl-6H-dibenzo[b,d]pyran]	460 nM
CCOC(=O)CCc1cccc(C2Oc3cccc(OC(F)F)c3-c3ccc(NS(C)(=O)=O)cc32)c1 (stereo not drawn) [Example 118, ethyl 3-(3-{1-(difluoromethoxy)-8-[(methylsulfonyl)amino]-6H-benzo[c]chromen-6-yl}phenyl)propanoate]	610 nM
CCOC(=O)c1cccc(C2Oc3cccc(OC(F)F)c3-c3ccc(NS(C)(=O)=O)cc32)c1 (stereo not drawn) [Example 114, ethyl 3-{1-(difluoromethoxy)-8-[(methylsulfonyl)amino]-6H-benzo[c]chromen-6-yl}benzoate]	290 nM
COCC#Cc1ccc(C2Oc3cccc(OC)c3-c3ccc(NS(C)(=O)=O)cc32)s1 (stereo not drawn) [Example 92, N-{1-methoxy-6-[5-(3-methoxy-1-propynyl)-2-thienyl]-6H-benzo[c]chromen-8-yl}methanesulfonamide]	51 nM
COc1cccc2c1-c1ccc(NS(C)(=O)=O)cc1C(c1cccc(N(C)S(=O)(=O)CCCCl)c1)O2 (stereo not drawn) [Example 130, 3-chloro-N-(3-{1-methoxy-8-[(methylsulfonyl)amino]-6H-benzo[c]chromen-6-yl}phenyl)-N-methyl-1-propanesulfonamide]	> 10000 nM
COc1cccc2c1-c1ccc(NS(C)(=O)=O)cc1C(c1ccc(C#Cc3ccccc3)s1)O2 (stereo not drawn) [Example 93, N-{1-methoxy-6-[5-(phenylethynyl)-2-thienyl]-6H-benzo[c]chromen-8-yl}methanesulfonamide]	> 1000 nM
COc1ccc(-c2cccc(C3Oc4cccc(OC(F)F)c4-c4ccc(NS(C)(=O)=O)cc43)c2)cc1 (stereo not drawn) [Example 145, N-[1-(difluoromethoxy)-6-(4′-methoxy[1,1′-biphenyl]-3-yl)-6H-benzo[c]chromen-8-yl]methanesulfonamide]	390 nM

Second part, the compound after the results:

IC50	Compound
530 nM	Cc1ccc(-c2cccc(C3Oc4cccc(OC(F)F)c4-c4ccc(NS(C)(=O)=O)cc43)c2)cc1 (stereo not drawn) [Example 147, N-[1-(difluoromethoxy)-6-(4′-methyl[1,1′-biphenyl]-3-yl)-6H-benzo[c]chromen-8-yl]methanesulfonamide]
220 nM	CS(=O)(=O)Nc1ccc2c(c1)C(c1cccc(-c3ccc(Cl)cc3)c1)Oc1cccc(OC(F)F)c1-2 (stereo not drawn) [Example 143, N-[6-(4′-chloro[1,1′-biphenyl]-3-yl)-1-(difluoromethoxy)-6H-benzo[c]chromen-8-yl]methanesulfonamide]
> 10000 nM	CCCS(=O)(=O)N(C)c1cccc(C2Oc3cccc(OC)c3-c3ccc(NS(C)(=O)=O)cc32)c1 (stereo not drawn) [Example 132, N-(3-{1-methoxy-8-[(methylsulfonyl)amino]-6H-benzo[c]chromen-6-yl}phenyl)-N-methyl-1-propanesulfonamide]
880 nM	COc1cccc2c1-c1ccc(NS(C)(=O)=O)cc1C(c1cccc(-c3ccc(O)cc3)c1)O2 (stereo not drawn) [Example 128, N-[6-(4′-hydroxy[1,1′-biphenyl]-3-yl)-1-methoxy-6H-benzo[c]chromen-8-yl]methanesulfonamide]
140 nM	CS(=O)(=O)Nc1ccc2c(c1)C(c1cccc(-c3ccc(F)cc3)c1)Oc1cccc(OC(F)F)c1-2 (stereo not drawn) [Example 144, N-[1-(difluoromethoxy)-6-(4′-fluoro[1,1′-biphenyl]-3-yl)-6H-benzo[c]chromen-8-yl]methanesulfonamide]
> 10000 nM	COc1cccc2c1-c1ccc(NS(C)(=O)=O)cc1C(c1cccc(-c3ccc(N(C)C)cc3)c1)O2 (stereo not drawn) [Example 133, N-{6-[4′-(dimethylamino)[1,1′-biphenyl]-3-yl]-1-methoxy-6H-benzo[c]chromen-8-yl}methanesulfonamide]
29 nM	O=S(=O)(Nc1ccc2c(c1)C(c1ccccc1)Oc1cccc(OC(F)F)c1-2)c1cccs1 (stereo not drawn) [Example 26, N-(1-difluoromethoxy-6-phenyl-6H-dibenzo[b,d]pyran-8-yl)-thiophene-2-sulfonamide]
> 10000 nM	CS(=O)(=O)Nc1ccc2c(c1)C(c1cccc(CCCCCCC#N)c1)Oc1cccc(OC(F)F)c1-2 (stereo not drawn) [Example 137, N-[6-[3-(6-cyanohexyl)phenyl]-1-(difluoromethoxy)-6H-benzo[c]chromen-8-yl]methanesulfonamide]
3350 nM	COc1cccc2c1-c1ccc(NS(C)(=O)=O)cc1C(c1ccccc1)O2 (stereo not drawn) [Example 5, N-(1-methoxy-6-phenyl-6H-dibenzo[b,d]pyran-8-yl)methanesulfonamide]
> 10000 nM	COc1cccc2c1-c1ccc(NS(C)(=O)=O)cc1C(c1cccc(-c3ccc(Cl)c(Cl)c3)c1)O2 (stereo not drawn) [Example 127, N-[6-(3′,4′-dichloro[1,1′-biphenyl]-3-yl)-1-methoxy-6H-benzo[c]chromen-8-yl]methanesulfonamide]
1960 nM	CCOC(=O)CCCCCc1cccc(C2Oc3cccc(OC(F)F)c3-c3ccc(NS(C)(=O)=O)cc32)c1 (stereo not drawn) [Example 119, ethel 6-(3-{1-(difluoromethoxy)-8-[(methylsulfonyl)amino]-6H-benzo[c]chromen-6-yl}phenyl)hexanoate]
> 10000 nM	C=Cc1c(NS(C)(=O)=O)ccc2c1C(c1cccc(C(F)(F)F)c1)Oc1cccc(OC)c1-2 (stereo not drawn) [Example 3, (1-methoxy-6-(3-trifluoromethyl)phenyl-7-vinyl-6H-dibenzo(b,d)pyran-8-yl)methanesulfonamide]
60 nM	CS(=O)(=O)Nc1ccc2c(c1)C(c1cccc(F)c1)Oc1cccc(OC(F)F)c1-2 (stereo not drawn) [Example 107, N-[1-(difluoromethoxy)-6-(3-fluorophenyl)-6H-benzo[c]chromen-8-yl]methanesulfonamide]
92 nM	CCCCC/C=C/C1Oc2cccc(OC)c2-c2ccc(NS(C)(=O)=O)cc21 (stereo not drawn) [Example 98, N-{6-[(1E)-1-heptenyl]-1-methoxy-6H-benzo[c]chromen-8-yl}methanesulfonamide]
500 nM	COc1cccc2c1-c1ccc(CS(N)(=O)=O)cc1C(c1cccc(Cl)c1)O2 (stereo not drawn) [Example 60, (1-methoxy-6-(3-chlorophenyl)-6H-dibenzo(b,d)pyran-8-yl)methanesulfonamide]
> 10000 nM	COc1ccc(-c2cccc(C3Oc4cccc(OC)c4-c4ccc(NS(C)(=O)=O)cc43)c2)cc1 (stereo not drawn) [Example 125, N-[1-methoxy-6-(4′-methoxy[1,1′-biphenyl]-3-yl)-6H-benzo[c]chromen-8-yl]methanesulfonamide]
